{"source": "ChEMBL document CHEMBL1275310", "about": "“Synthesis and screening of some novel fused thiophene and thienopyrimidine derivatives for anti-avian influenza virus (H5N1) activity” (2010)", "type_in_all_cases": "functional", "key": {"[1]": {"tested_on": "Influenza A virus", "test": "Antiviral activity against Influenza A virus (A/chicken/Egypt/1/2006 (H5N1)) infected in MDCK cells assessed as virus-induced cytopathogenicity at 40 ug after 3 to 4 days by plaque reduction assay"}, "[2]": {"tested_on": "Influenza A virus", "test": "Antiviral activity against Influenza A virus (A/chicken/Egypt/1/2006 (H5N1)) infected in MDCK cells assessed as virus-induced cytopathogenicity at 20 ug after 3 to 4 days by plaque reduction assay"}, "[3]": {"tested_on": "Influenza A virus", "test": "Antiviral activity against Influenza A virus (A/chicken/Egypt/1/2006 (H5N1)) infected in MDCK cells assessed as virus-induced cytopathogenicity at 5 ug after 3 to 4 days by plaque reduction assay"}, "[4]": {"tested_on": "Influenza A virus", "test": "Antiviral activity against Influenza A virus (A/chicken/Egypt/1/2006 (H5N1)) infected in MDCK cells assessed as virus-induced cytopathogenicity at 10 ug after 3 to 4 days by plaque reduction assay"}}, "data": [{"smiles": "NC(=O)c1c(N)sc2c1-c1ccccc1CC2", "values": [{"measurement": "inhibition (INH)", "setting": "[1]", "result": 89, "unit": "%"}]}, {"smiles": "O=c1[nH]c(=S)[nH]c2sc3c(c12)-c1ccccc1CC3", "values": [{"measurement": "inhibition (INH)", "setting": "[1]", "result": 65, "unit": "%"}]}, {"smiles": "O=c1[nH]c(=O)c2c3c(sc2[nH]1)CCc1ccccc1-3", "values": [{"measurement": "inhibition (INH)", "setting": "[2]", "result": 95, "unit": "%"}, {"measurement": "inhibition (INH)", "setting": "[1]", "result": 98, "unit": "%"}, {"measurement": "inhibition (INH)", "setting": "[3]", "result": 92, "unit": "%"}, {"measurement": "inhibition (INH)", "setting": "[4]", "result": 94, "unit": "%"}]}]}
